ChEMBL document CHEMBL5528066, “Discovery of Novel N-(Anthracen-9-ylmethyl) Benzamide Derivatives as ZNF207 Inhibitors Promising in Treating Glioma” (J Med Chem, 2024)
Activity calls are given as the source filed them. No cut-off for these calls is given here.

What was measured:
MKN-45 = experiment: Antiproliferative activity against human MKN-45 cells assessed as inhibition of cell growth incubated for 72 hrs by CCK-8 assay; format: functional, cell-based; details: MKN-45, 72 h
H4 [1] = experiment: Inhibition of sphere formation in human H4 cells at 4 uM measured after 10 days in well containing 1 cells by microscopic analysis; format: functional, cell-based; details: time 10.0 day
H4 [2] = experiment: Inhibition of sphere formation in human H4 cells at 2 uM measured after 10 days in well containing 1 cells by microscopic analysis; format: functional, cell-based; details: time 10.0 day
Hs 683 [3] = experiment: Induction of apoptosis in human Hs 683 cells assessed as apoptotic cells at 2.5 uM incubated for 24 hrs by Annexin V-FITC/PI staining based flow cytometry analysis relative to control; format: functional
Hs 683 [4] = experiment: Inhibition of sphere formation in human Hs 683 cells assessed as fold reduction in sphere initiating frequency at 2 uM incubated for 10 days by microscopic analysis relative to control; format: functional; details: time 10 day
LN-229 [5] = experiment: Inhibition of sphere formation in human LN-229 cells at 1 uM measured after 10 days in well containing 1000 cells by microscopic analysis; format: functional, cell-based; details: time 10.0 day
LN-229 [6] = experiment: Inhibition of sphere formation in human LN-229 cells at 4 uM measured after 10 days in well containing 10000 cells by microscopic analysis; format: functional, cell-based; details: time 10.0 day
[7] = Toxicity in female C57BL/6 mouse assessed as change in cellular structure of lung at 45 mg/kg, po administered once a day for 2 weeks by H and E staining based analysis; format: organism-based; details: in vivo, 336 h
[8] = Toxicity in female C57BL/6 mouse assessed as change in cellular structure of heart at 45 mg/kg, po administered once a day for 2 weeks by H and E staining based analysis; format: organism-based; details: in vivo, 336 h
U-251 [9] = experiment: Inhibition of sphere formation in human U-251MG cells assessed as fold reduction in sphere initiating frequency at 8 uM incubated for 10 days by microscopic analysis relative to control; format: functional; details: time 10 day
Hs 683 [10] = experiment: Inhibition of sphere formation in human Hs 683 cells at 1 uM measured after 10 days in well containing 1 cells by microscopic analysis; format: functional, cell-based; details: time 10.0 day
[11] = Drug concentration in female Sprague-Dawley rat liver at 45 mg/kg, po measured after 8 hrs by LC-MS/MS analysis; format: ADME, organism-based; details: read-out: Ct
Hs 683 [12] = experiment: Antiproliferative activity against human Hs 683 cells assessed as inhibition of cell growth measured after 72 hrs by CCK-8 assay; format: functional, cell-based; details: Hs 683, 72 h
Hs 683 [13] = experiment: Inhibition of sphere formation in human Hs 683 cells assessed as fold reduction in sphere initiating frequency at 1 uM incubated for 10 days by microscopic analysis relative to control; format: functional; details: time 10 day
MDR1 = experiment: Apparent permeability across apical to basolateral side in MDCKII-MDR1 cells at 1 uM incubated for 2 hrs by LC-MS/MS analysis; format: ADME, cell-based, Canis lupus familiaris; details: dog, MDCK-MDR1
LN-229 [14] = experiment: Inhibition of cell migration in human LN-229 cells assessed as reduction in wound closure ability measured after 24 to 48 hrs by wound healing assay; format: functional, cell-based; details: dose 2.5-10 µM, time 24-48 hrs
LN-229 [15] = experiment: Inhibition of colony formation in human LN-229 cells assessed as reduction in number of cell clones treated on day 1 and measured after 14 days by crystal violet staining based microscopic analysis; format: functional; details: dose 0.625-5 µM, time 14.0 day
Hs 683 [16] = experiment: Inhibition of sphere formation in human Hs 683 cells at 2 uM measured after 10 days in well containing 1 cells by microscopic analysis; format: functional, cell-based; details: time 10.0 day
Hs 683 [17] = experiment: Inhibition of sphere formation in human Hs 683 cells at 4 uM measured after 10 days in well containing 100 cells by microscopic analysis; format: functional, cell-based; details: time 10.0 day
U-937 = experiment: Antiproliferative activity against human U-937 cells assessed as inhibition of cell growth incubated for 72 hrs by CCK-8 assay; format: functional, cell-based; details: U-937, 72 h
U-251 [18] = experiment: Inhibition of colony formation in human U-251MG cells assessed as reduction in number of cell clones treated on day 1 and measured after 14 days by crystal violet staining based microscopic analysis; format: functional; details: dose 0.625-5 µM, time 14.0 day
H4 [19] = experiment: Inhibition of sphere formation in human H4 cells at 1 uM measured after 10 days in well containing 10 cells by microscopic analysis; format: functional, cell-based; details: time 10.0 day
LN-229 [20] = experiment: Inhibition of sphere formation in human LN-229 cells assessed as fold reduction in sphere initiating frequency at 1 uM incubated for 10 days by microscopic analysis relative to control; format: functional; details: time 10 day
[21] = Drug concentration in female Sprague-Dawley rat brain at 45 mg/kg, po measured after 8 hrs by LC-MS/MS analysis; format: ADME, organism-based; details: read-out: Ct
LN-229 [22] = experiment: Inhibition of sphere formation in human LN-229 cells at 2 uM measured after 10 days in well containing 1 cells by microscopic analysis; format: functional, cell-based; details: time 10.0 day
LN-229 [23] = experiment: Antitumor activity against human LN-229 cells xenografted in BALB/c nude mouse assessed as tumor growth inhibition at 15 to 45 mg/kg, po administered once a day and measured every 2 days for 49 days relative to control; format: functional; details: dose 15-45 mg/kg, time 49 day
Hs 683 [24] = experiment: Inhibition of sphere formation in human Hs 683 cells at 4 uM measured after 10 days in well containing 1 cells by microscopic analysis; format: functional, cell-based; details: time 10.0 day
U-251 [25] = experiment: Inhibition of sphere formation in human U-251MG cells at 1 uM measured after 10 days in well containing 10000 cells by microscopic analysis; format: functional, cell-based; details: time 10.0 day
LN-229 [26] = experiment: Inhibition of sphere formation in human LN-229 cells at 8 uM measured after 10 days in well containing 10 cells by microscopic analysis; format: functional, cell-based; details: time 10.0 day
Hs 683 [27] = experiment: Inhibition of colony formation in human Hs 683 cells assessed as reduction in number of cell clones treated on day 1 and measured after 14 days by crystal violet staining based microscopic analysis; format: functional; details: dose 0.625-5 µM, time 14.0 day
U-251 [28] = experiment: Inhibition of sphere formation in human U-251MG cells at 1 uM measured after 10 days in well containing 1000 cells by microscopic analysis; format: functional, cell-based; details: time 10.0 day
U-251 [29] = experiment: Inhibition of sphere formation in human U-251MG cells at 8 uM measured after 10 days in well containing 10000 cells by microscopic analysis; format: functional, cell-based; details: time 10.0 day
U-251 [30] = experiment: Inhibition of sphere formation in human U-251MG cells assessed as fold reduction in sphere initiating frequency at 1 uM incubated for 10 days by microscopic analysis relative to control; format: functional; details: time 10 day
U-251 [31] = experiment: Inhibition of sphere formation in human U-251MG cells assessed as fold reduction in sphere initiating frequency at 4 uM incubated for 10 days by microscopic analysis relative to control; format: functional; details: time 10 day
HeLa = experiment: Antiproliferative activity against human HeLa cells assessed as inhibition of cell growth incubated for 72 hrs by CCK-8 assay; format: functional, cell-based
LN-229 [32] = experiment: Downregulation of SOX2 protein expression in human LN-229 cells at 2 to 4 uM incubated for 48 hrs by Western blot analysis; format: functional, cell-based; details: dose 2-4 µM
H4 [33] = experiment: Inhibition of sphere formation in human H4 cells assessed as fold reduction in sphere initiating frequency at 2 uM incubated for 10 days by microscopic analysis relative to control; format: functional; details: time 10 day
Hs 683 [34] = experiment: Inhibition of sphere formation in human Hs 683 cells at 2 uM measured after 10 days in well containing 10 cells by microscopic analysis; format: functional, cell-based; details: time 10.0 day
[35] = Toxicity in male C57BL/6 mouse assessed as change in cellular structure of lung at 45 mg/kg, po administered once a day for 2 weeks by H and E staining based analysis; format: organism-based; details: in vivo, 336 h

With `N#CC1(C(=O)NCCC2CCN(Cc3ccccc3)CC2)CC2(Br)c3ccccc3C1c1ccccc12` (racemic) the IC50 (MKN-45) was 3.84 µM, the inhibition (H4 [1]) was “Active” and the inhibition (H4 [2]) was “Active”. For the same compound, the Activity (Hs 683 [3]) was about 20%, the “fold change (FC)” value (Hs 683 [4]) was 15.75 and the inhibition (LN-229 [5]) was “inactive”. For the same compound, the inhibition (LN-229 [6]) was “inactive”, the Activity [7] was “Non-Toxic” and the Activity [8] was “Non-Toxic”. For the same compound, the “fold change (FC)” value (U-251 [9]) was 166, the inhibition (Hs 683 [10]) was “Active” and the concentration at 8 h [11] was 1400 ng/g. The IC50 (Hs 683 [12]) was 8.53 µM, the “fold change (FC)” value (Hs 683 [13]) was 2.8 and the Papp A→B at 2 h, 1 µM (MDR1) was 1.26 ×10⁻⁶ cm/s. For the same compound, the inhibition (LN-229 [14]) was “Dose-Dependent Effect”, the inhibition (LN-229 [15]) was “Dose-Dependent Effect” and the inhibition (Hs 683 [16]) was “Active”. The inhibition (Hs 683 [17]) was “Active”, the IC50 (U-937) was 14 µM and the inhibition (U-251 [18]) was “Dose-Dependent Effect”. For the same compound, the inhibition (H4 [19]) was “Active”, the “fold change (FC)” value (LN-229 [20]) was 4.37 and the concentration at 8 h [21] was 56.1 ng/g. For the same compound, the inhibition (LN-229 [22]) was “Active”, the TGI (LN-229 [23]) was about 55% and the inhibition (Hs 683 [24]) was “Active”. For the same compound, the inhibition (U-251 [25]) was “inactive”, the inhibition (LN-229 [26]) was “Active” and the inhibition (Hs 683 [27]) was “Dose-Dependent Effect”. The inhibition (U-251 [28]) was “inactive”, the inhibition (U-251 [29]) was “inactive” and the “fold change (FC)” value (U-251 [30]) was 2.78. For the same compound, the “fold change (FC)” value (U-251 [31]) was 78.18, the IC50 (HeLa) was 8.13 µM and the Activity (LN-229 [32]) was “Active”. For the same compound, the “fold change (FC)” value (H4 [33]) was 25.31, the inhibition (Hs 683 [34]) was “Active” and the Activity [35] was “Non-Toxic”.
